Active and inactive are the calls of the source. The calls are words filed in the database; no cut-off is given here.
Columns and labels:
Mus musculus [1] = experiment: Anti-inflammatory activity in ip dosed Swiss Webster mouse assessed as inhibition of ATP-induced paw edema pretreated for 60 mins followed by ATP administration and measured after 30 mins; assay type: functional
P2X purinoceptor 7 [2] = target: T1, P2X purinoceptor 7 (Mus musculus, UniProt Q9Z1M0); experiment: Antagonist activity at P2X7 receptor in Swiss mouse peritoneal macrophages assessed as inhibition of BzATP-induced ethidium iodide uptake after 30 mins by spectrofluorometric analysis
T1 sequence (Q9Z1M0 whole entry): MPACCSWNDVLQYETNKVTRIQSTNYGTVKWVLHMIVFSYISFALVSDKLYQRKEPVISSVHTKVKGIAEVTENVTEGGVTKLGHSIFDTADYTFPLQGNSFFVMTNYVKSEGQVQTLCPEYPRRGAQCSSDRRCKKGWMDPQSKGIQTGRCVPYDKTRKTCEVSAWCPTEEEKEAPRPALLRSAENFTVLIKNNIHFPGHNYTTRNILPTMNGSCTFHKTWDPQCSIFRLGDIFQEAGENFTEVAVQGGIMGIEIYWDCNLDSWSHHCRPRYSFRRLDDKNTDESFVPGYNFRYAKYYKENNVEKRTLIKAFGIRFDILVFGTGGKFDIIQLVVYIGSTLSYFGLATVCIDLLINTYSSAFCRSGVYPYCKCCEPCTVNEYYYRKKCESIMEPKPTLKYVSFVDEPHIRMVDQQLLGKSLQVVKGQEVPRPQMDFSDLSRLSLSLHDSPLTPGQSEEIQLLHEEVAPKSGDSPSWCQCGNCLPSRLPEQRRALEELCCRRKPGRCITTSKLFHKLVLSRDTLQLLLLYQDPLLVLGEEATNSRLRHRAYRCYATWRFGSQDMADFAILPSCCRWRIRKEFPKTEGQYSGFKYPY

P2X purinoceptor 7 [3] = target: T1, P2X purinoceptor 7; experiment: Antagonist activity at P2X7 receptor in Swiss mouse peritoneal macrophages assessed as inhibition of BzATP-induced current at holding potential of -60 mV preincubated for 5 mins followed by BzATP addition measured after 5 mins by Whole cell patch-clamp analysis
Mus musculus [4] = experiment: Anti-inflammatory activity in po dosed Swiss Webster mouse assessed as inhibition of ATP-induced paw edema pretreated for 60 mins followed by ATP administration and measured after 30 mins; assay type: functional
Mus musculus [5] = experiment: Anti-inflammatory activity in po dosed Swiss Webster mouse assessed as inhibition of carrageenan-induced paw edema pretreated for 60 mins followed by carrageenan administration and measured after 60 mins; assay type: functional
Mus musculus [6] = experiment: Anti-inflammatory activity in ip dosed Swiss Webster mouse assessed as inhibition of carrageenan-induced paw edema pretreated for 60 mins followed by carrageenan administration and measured after 30 mins; assay type: functional
P2X purinoceptor 7 [7] = target: T2, P2X purinoceptor 7 (Homo sapiens, UniProt Q99572); experiment: Antagonist activity at human P2X7 receptor in PMA-differentiated THP-1 macrophages assessed as inhibition of ATP-induced IL-1beta release preincubated for 30 mins followed by ATP addition measured after 30 mins by ELISA
T2 sequence (Q99572 whole entry): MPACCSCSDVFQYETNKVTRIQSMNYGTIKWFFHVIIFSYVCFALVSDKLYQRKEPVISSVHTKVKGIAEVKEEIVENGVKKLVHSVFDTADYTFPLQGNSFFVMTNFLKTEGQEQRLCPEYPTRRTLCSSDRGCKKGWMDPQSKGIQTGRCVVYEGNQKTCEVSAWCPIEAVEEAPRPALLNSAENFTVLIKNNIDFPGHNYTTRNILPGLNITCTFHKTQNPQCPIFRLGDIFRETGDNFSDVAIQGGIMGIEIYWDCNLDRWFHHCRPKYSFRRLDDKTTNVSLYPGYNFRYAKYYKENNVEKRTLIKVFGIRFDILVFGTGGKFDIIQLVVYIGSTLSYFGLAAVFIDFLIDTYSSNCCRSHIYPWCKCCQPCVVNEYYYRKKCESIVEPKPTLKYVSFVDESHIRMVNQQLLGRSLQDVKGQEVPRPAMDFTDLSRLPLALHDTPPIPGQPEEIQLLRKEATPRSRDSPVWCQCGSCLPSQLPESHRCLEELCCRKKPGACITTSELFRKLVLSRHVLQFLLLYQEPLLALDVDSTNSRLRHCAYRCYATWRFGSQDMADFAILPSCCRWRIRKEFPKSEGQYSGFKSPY

P2X purinoceptor 7 [8] = target: T2, P2X purinoceptor 7; experiment: Antagonist activity at human P2X7 receptor expressed in HEK293 cells assessed as inhibition of ATP-induced ethidium iodide uptake preincubated for 10 mins followed by ATP addition measured after 20 mins by spectrofluorometric analysis; assay type: cell-based
P2X purinoceptor 7 [9] = target: T1, P2X purinoceptor 7; experiment: Antagonist activity at P2X7 receptor in LPS/IFNc-differentiated Swiss mouse peritoneal macrophages assessed as inhibition of ATP-induced IL-1beta release preincubated for 30 mins followed by LPS stimulation for 4 hrs using cells treated with ATP for 30 mins by ELISA
P2X purinoceptor 7 [10] = target: T1, P2X purinoceptor 7; experiment: Antagonist activity at mouse P2X7 receptor expressed in human 1321N1 cells assessed as reduction in agonist-induced intracellular Ca2+ levels preincubated for 3 mins followed by agonist addition measured up to 2 mins by Fluo-4 dye-based FLIPR assay; assay type: cell-based
P2X purinoceptor 7 [11] = target: P2X purinoceptor 7 (Rattus norvegicus, UniProt Q64663); experiment: Antagonist activity at rat P2X7 receptor expressed in human 1321N1 cells assessed as reduction in agonist-induced intracellular Ca2+ levels preincubated for 3 mins followed by agonist addition measured up to 2 mins by Fluo-4 dye-based FLIPR assay; assay type: cell-based
Sequence of P2X purinoceptor 7 (Rattus norvegicus, UniProt Q64663) (Q64663 whole entry): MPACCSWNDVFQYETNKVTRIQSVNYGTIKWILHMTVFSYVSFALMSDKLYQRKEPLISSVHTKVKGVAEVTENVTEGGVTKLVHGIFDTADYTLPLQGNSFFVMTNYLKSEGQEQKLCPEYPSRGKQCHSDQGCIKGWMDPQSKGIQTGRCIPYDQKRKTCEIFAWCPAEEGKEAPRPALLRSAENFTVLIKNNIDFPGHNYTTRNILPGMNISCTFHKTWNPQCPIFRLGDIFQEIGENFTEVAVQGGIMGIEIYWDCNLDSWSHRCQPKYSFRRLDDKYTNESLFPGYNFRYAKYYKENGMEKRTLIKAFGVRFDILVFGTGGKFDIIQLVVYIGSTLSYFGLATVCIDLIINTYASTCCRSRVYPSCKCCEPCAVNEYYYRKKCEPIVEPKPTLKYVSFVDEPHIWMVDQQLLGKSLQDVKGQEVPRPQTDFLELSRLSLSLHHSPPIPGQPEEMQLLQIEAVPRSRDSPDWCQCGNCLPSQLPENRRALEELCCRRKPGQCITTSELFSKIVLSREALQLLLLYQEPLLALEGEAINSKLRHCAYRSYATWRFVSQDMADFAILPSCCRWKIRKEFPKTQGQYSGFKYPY

P2X purinoceptor 7 [12] = target: T2, P2X purinoceptor 7; experiment: Antagonist activity at human P2X7 receptor expressed in human THP1 cells assessed as reduction in BzATP-induced IL-1beta levels preincubated for 30 mins followed by BzATP addition measured after 30 mins by ELISA; assay type: cell-based
P2X purinoceptor 7 [13] = target: T2, P2X purinoceptor 7; experiment: Antagonist activity at human P2X7 receptor expressed in human THP1 cells assessed as reduction in BzATP-induced pore formation by measuring YO-PRO uptake by FLIPR assay; assay type: cell-based
P2X purinoceptor 7 [14] = target: T2, P2X purinoceptor 7; experiment: Antagonist activity at human P2X7 receptor expressed in human 1321N1 cells assessed as reduction in agonist-induced intracellular Ca2+ levels preincubated for 3 mins followed by agonist addition measured up to 2 mins by Fluo-4 dye-based FLIPR assay; assay type: cell-based
[15] = target: T3, P2X purinoceptor 7 (Homo sapiens) (UniProt Q99572); experiment: Antagonist activity at human P2X7 receptor expressed in HEK293 cells assessed as inhibition of ATP-induced ethidium iodide uptake at 750 nM preincubated for 10 mins followed by ATP addition measured after 20 mins by FLIPR assay relative to 1 mM ATP; assay type: cell-based
T3 sequence (whole entry): T2 sequence (Q99572 whole entry)

P2X purinoceptor 7 [16] = target: T1, P2X purinoceptor 7; experiment: (§1) Antagonist activity at P2X7 receptor in Swiss mouse peritoneal macrophages assessed as inhibition of ATP-induced propidium iodide uptake after 25 mins by flow cytometric analysis
[17] = target: T4, P2X purinoceptor 7 (Mus musculus) (UniProt Q9Z1M0); experiment: as §1
T4 sequence (whole entry): T1 sequence (Q9Z1M0 whole entry)

Peritoneal macrophage [18] = experiment: Toxicity in Swiss mouse peritoneal macrophages assessed as LDH release at 750 nM after 60 mins relative to 0.05% Triton X-100; assay type: cell-based; conditions: 1 h, 0.75 µM
[19] = target: P2X purinoceptor 7 (Mus musculus) (UniProt Q9Z1M0); experiment: Antagonist activity at P2X7 receptor in Swiss mouse peritoneal macrophages assessed as inhibition of ATP-induced propidium iodide uptake at 750 nM after 30 mins by FLIPR assay relative to 1 mM ATP
P2X purinoceptor 7 [20] = target: T1, P2X purinoceptor 7; experiment: Antagonist activity at P2X7 receptor in Swiss mouse peritoneal macrophages assessed as inhibition of ATP-induced current at holding potential of -60 mV preincubated for 5 mins followed by ATP addition measured after 5 mins by Whole cell patch-clamp analysis
[21] = target: P2X purinoceptor 7 (Mus musculus) (UniProt Q9Z1M0); experiment: Antagonist activity at P2X7 receptor in Swiss mouse peritoneal macrophages assessed as inhibition of ATP-induced propidium iodide uptake at 10 uM after 30 mins by FLIPR assay relative to 1 mM ATP
Peritoneal macrophage [22] = experiment: Toxicity in Swiss mouse peritoneal macrophages assessed as LDH release at 10 uM after 60 mins relative to 0.05% Triton X-100; assay type: cell-based; conditions: 1 h
[23] = Cytotoxicity against Swiss mouse peritoneal macrophages after 24 hrs by LDH-release assay; assay type: cell-based, Peritoneal macrophage
[24] = target: T4, P2X purinoceptor 7 (Mus musculus); experiment: Antagonist activity at mouse P2X7 receptor expressed in HEK293 cells assessed as inhibition of ATP-induced ethidium iodide uptake at 10 uM preincubated for 10 mins followed by ATP addition measured after 20 mins by FLIPR assay relative to 1 mM ATP; assay type: cell-based
[25] = target: T3, P2X purinoceptor 7 (Homo sapiens); experiment: Antagonist activity at human P2X7 receptor expressed in HEK293 cells assessed as inhibition of ATP-induced ethidium iodide uptake at 10 uM preincubated for 10 mins followed by ATP addition measured after 20 mins by FLIPR assay relative to 1 mM ATP; assay type: cell-based

SMILES: COc1ccc(CC(=O)NC(N/C(=N/C#N)Nc2cccc3ncccc23)C(C)(C)C)cc1OC (configuration not stated)
- ID50 (Mus musculus [1]): 0.1058 µg/kg
- IC50 (P2X purinoceptor 7 [2]): 63.3 nM
- IC50 (P2X purinoceptor 7 [3]): 46.9 nM
- ID50 (Mus musculus [4]): 0.1097 µg/kg
- ID50 (Mus musculus [5]): 0.119 µg/kg
- ID50 (Mus musculus [6]): 0.1423 µg/kg
- IC50 (P2X purinoceptor 7 [7]): 82 nM
- IC50 (P2X purinoceptor 7 [8]): 86 nM
- IC50 (P2X purinoceptor 7 [9]): 112 nM

SMILES: Clc1cccc(-n2nnnc2NCc2ccccc2Oc2ccccn2)c1Cl
- IC50 (P2X purinoceptor 7 [10]): 20 to 150 nM
- IC50 (P2X purinoceptor 7 [11]): 20 to 150 nM
- IC50 (P2X purinoceptor 7 [12]): 37.2 nM
- IC50 (P2X purinoceptor 7 [13]): 6.61 nM
- IC50 (P2X purinoceptor 7 [14]): 20 to 150 nM

SMILES: CCOc1ccc(Nc2ccc(/C(=C3C=C/C(=[N+](/CC)Cc4cccc(S(=O)(=O)[O-])c4)C=C/3C)c3ccc(N(CC)Cc4cccc(S(=O)(=O)[O-])c4)cc3C)cc2)cc1.[Na+] [BRILLIANT BLUE G]
- IC50 (P2X purinoceptor 7 [2]): 432 nM
- IC50 (P2X purinoceptor 7 [3]): 407 nM
- inhibition [15]: 90.1%
- IC50 (P2X purinoceptor 7 [16]): 343 nM
- inhibition [17]: Dose-dependent effect
- Activity (Peritoneal macrophage [18]): 13.22%
- IC50 (P2X purinoceptor 7 [8]): 552 nM
- inhibition [19]: 78.9%
- IC50 (P2X purinoceptor 7 [20]): 109 nM

SMILES: COc1ccc(-n2cc(CO)nn2)cc1
- inhibition [21]: 86.3%
- Activity (Peritoneal macrophage [22]): 9.7%
- CC50 at 24 h [23]: 363 nM
- IC50 (P2X purinoceptor 7 [16]): 488 nM
- inhibition [17]: Dose-dependent effect
- inhibition [24]: Active
- inhibition [25]: 94.1%
- IC50 (P2X purinoceptor 7 [8]): 932 nM
- IC50 (P2X purinoceptor 7 [20]): 341 nM

— ChEMBL document CHEMBL4130413, “1-Aryl-1H- and 2-aryl-2H-1,2,3-triazole derivatives blockade P2X7 receptor in vitro and inflammatory response in vivo” (Eur J Med Chem, 2017)
